These results are taken from patent US4839465A, “Di-(D-tryptophyl and/or tetrahydropyridoindolylcarbonyl)-containing peptide amides and process for preparation thereof” (Sterling Drug Inc., priority 1987, dated 1989).

As a reminder, the EC50 is the concentration giving half of the maximal effect. A higher EC50 goes with weaker potency. A word on the Kd: it is a measure of binding affinity in units of concentration.

Experiment [1] relates to Substance P effect in isolated guinea pig ileum longitudinal muscle. Nature of the experiment: Guinea pig ileum test, Substance P agonist and antagonist effect. The class given is cell-based. As for the experimental part: Strips of longitudinal muscle (derived from terminal ileum of adult male guinea pigs (Charles River, 400-600 g.) are mounted in 5-ml. organ baths containing oxygenated Krebs solution containing 1 μM each of atropine and pyrilamine maintained at 30°-33° C. and connected to isometric transducers. Following tissue equilibration and repeated washing (45-60 min.), SP or an appropriate reference agonist is added cumulatively to the bath and contractions of the tissue are recorded. The bath is washed thoroughly and 30-45 min. is allowed to elapse before construction of a second reference agonist curve to assure reproducibility of the responses. Test compounds are similarly evaluated for agonist activity up to a maximum concentration of 10-100 μM. Regression analysis of the linear portion of the log concentration-percent maximal response curves provides the EC50 (and 95% confidence limits), the standard measure of agonist potency. When appropriate, relative molar potency ratios are calculated (EC50 reference/ED50 test drug). Antagonist activity is examined by pretreating thoroughly washed tissues with test compound (using a standard 5-10 min. contact time), then constructing a cumulative dose-response curve to the reference agonist. The effects of several concentrations of test antagonist, pooled across separate experiments, provide dose-ratio (EC50 shift) data for a standard Schild plot analysis, with computation of the pA2.

In experiment [2] the target is T1, SP receptor (rat brain tissue) (Rattus norvegicus, UniProt P14600).
T1 construct: from tissue; host or cells: crude rat brain tissue
The experiment is described as follows: Rat brain tissue 3H-SP competitive binding. The note with it: for Kd: crude rat brain tissue, 3H-SP, read-out: Substance P Competitive Binding KD; for effect on 3H-SP binding: specificity and sensitivity of the binding assay, rat brain tissue. As for the experimental part:
Crude rat brain tissue is suspended in buffer containing protease inhibitors and calcium ions and magnesium ions and incubated under nitrogen atmosphere with ^3 H-SP and test compound. The bound SP is then separated from free SP by filtration and quantitated by liquid scintillation spectroscopy. This test meets the criteria of reversibility,saturability, sensitivity to known SP agonists and antagonists, and specificity for an SP receptor binding assay.
With regard to reversibility, addition of unlabelled SP causes a gradual decrease in bound ^3 H-SP, showing that SP is not irreversibly bound to the receptors in the tissue. With regard to saturability, the amount of bound ^3 H-SP in the preparation increases in direct proportion to the concentration of ^3 H-SP added until a saturation point is reached. […] With regard to sensitivity, known SP agonists and antagonists inhibit ^3 H-SP binding.
The results are expressed in terms of the equilibrium constant KD in nanomoles per liter (nM), which takes into account the concentration of ^3 H-SP.

Experiment [3] deals with acetylcholine-induced writhing. Nature of the experiment: Mouse acetylcholine-induced writhing test. The conditions noted are these: intrathecal, acetylcholine 3.2 mg./kg. i.p. five minutes after injection. The format is in vivo. The procedure:
Male Swiss-Webster mice (18-24 g.) are divided into groups of 8-15 mice. A test compound in a vehicle or the vehicle alone is administered intrathecally in a volume of 5 μl by the method of Hylden and Wilcox (European Journal of Pharmacology, vol. 67, pp. 313-316, 1980) except that caudal cutaneous incision is not performed prior to injection. Five minutes after the injection a solution of acetylcholine (3.2 mg./kg., the approximate ED90) in 0.9% aqueous sodium chloride is administered intraperitoneally to each mouse. […] For test compounds which produce a graded dose-response ED50 values with 95% confidence limits are determined by probit analysis of the data.
For orientation: In writhing tests, fewer writhes than in controls are read as antinociception.

A further experiment concerns gastric juice secretion. The note with it: in vivo; cited from earlier work.
Setting [4] is: Schild plot, 5-10 min. contact time, guinea pig ileum longitudinal muscle.

Like-named read-outs stand apart in the source and are kept apart here. Where a SMILES comes first, the peptide text is derived from it. [ ]: non-standard residue; d: D form. Tpi = O=C(O)[C@@H]1Cc2c([nH]c3ccccc23)CN1; dTpi = O=C(O)[C@H]1Cc2c([nH]c3ccccc23)CN1 Bounds are passed on as bounds.

T1 sequence (P14600 whole entry): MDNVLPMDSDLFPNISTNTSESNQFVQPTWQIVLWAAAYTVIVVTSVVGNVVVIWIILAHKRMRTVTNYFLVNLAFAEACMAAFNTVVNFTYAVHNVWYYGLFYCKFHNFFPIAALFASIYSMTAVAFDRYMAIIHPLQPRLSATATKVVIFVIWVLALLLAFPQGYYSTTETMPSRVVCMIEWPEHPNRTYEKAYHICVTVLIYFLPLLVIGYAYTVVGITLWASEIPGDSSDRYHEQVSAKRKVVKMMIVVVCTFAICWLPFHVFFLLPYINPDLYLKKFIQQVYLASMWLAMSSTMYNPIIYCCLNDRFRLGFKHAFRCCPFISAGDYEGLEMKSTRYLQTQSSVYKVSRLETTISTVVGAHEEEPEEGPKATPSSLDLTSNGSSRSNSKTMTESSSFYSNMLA

Turning to `CSCC[C@H](NC(=O)[C@H](CC(C)C)NC(=O)[C@@H](Cc1c[nH]c2ccccc12)NC(=O)[C@H](Cc1ccccc1)NC(=O)[C@H](N)Cc1c[nH]c2ccccc12)C(N)=O` [Example 1, H--trp--Phe--trp--Leu--Met--NH2] (H-[dW]F[dW]LM-NH2), in experiment [1], the EC50 is > 1000 nM. Further, in experiment [1] (guinea pig ileum, not quantified), the “Substance P agonist activity” value is on record as “Some agonist activity was noted”.

As for `CC(C)C[C@H](NC(=O)[C@@H](Cc1c[nH]c2ccccc12)NC(=O)[C@H](Cc1ccccc1)NC(=O)[C@@H](Cc1c[nH]c2ccccc12)NC(=O)[C@@H]1CCCN1)C(=O)N[C@@H](Cc1ccccc1)C(N)=O` [Example 2, H--Pro--trp--Phe--trp--Leu--Phe--NH2] (H-P[dW]F[dW]LF-NH2), in experiment [2], the Kd was 22 nM. Moreover, the “Substance P Antagonist pA2” value in experiment [1] (setting [4]) came to 6.4.

On to `CC(C)C[C@H](NC(=O)[C@@H](Cc1c[nH]c2ccccc12)NC(=O)[C@H](Cc1ccccc1)NC(=O)[C@@H](Cc1c[nH]c2ccccc12)NC(=O)[C@@H]1CCCN1)C(N)=O` [Example 3, H--Pro--trp--Phe--trp--Leu--NH2] (H-P[dW]F[dW]L-NH2), for which, in experiment [2], the Kd amounted to 35 nM. Also, the “Substance P Antagonist pA2” value in experiment [1] (setting [4]) is recorded as 5.1.

With `CSCC[C@H](NC(=O)[C@H](CC(C)C)NC(=O)[C@@H](Cc1c[nH]c2ccccc12)NC(=O)[C@H](Cc1ccccc1)NC(=O)[C@H]1Cc2c([nH]c3ccccc23)CN1)C(N)=O` [Example 4, H--tpi--Phe--trp--Leu--Met--NH2] (H-[dTpi]F[dW]LM-NH2), the “ED50, protection against acetylcholine-induced writhing” value in experiment [3] was 0.7 μg/mouse. The Kd in experiment [2] was 42 nM. For the same compound, in experiment [1] (setting [4]), the “Substance P Antagonist pA2” value worked out at 6.4.

With `CSCC[C@H](NC(=O)[C@H](CC(C)C)NC(=O)[C@@H](Cc1c[nH]c2ccccc12)NC(=O)[C@H](Cc1ccccc1)NC(=O)[C@@H]1Cc2c([nH]c3ccccc23)CN1)C(N)=O` [Example 5, H--Tpi--Phe--trp--Leu--Met--NH2] (H-[Tpi]F[dW]LM-NH2), the Kd in experiment [2] came out at 59 nM.

For the compound `CC(C)C[C@H](NC(=O)[C@H]1Cc2c([nH]c3ccccc23)CN1C(=O)[C@H](Cc1ccccc1)NC(=O)[C@@H](Cc1c[nH]c2ccccc12)NC(=O)[C@@H]1CCCN1)C(=O)N[C@@H](Cc1ccccc1)C(N)=O` [Example 6, H--Pro--trp--Phe--tpi--Leu--Phe--NH2] (H-P[dW]F[dTpi]LF-NH2), in experiment [2], the Kd is 39 nM. Besides, the “Substance P Antagonist pA2” value in experiment [1] (setting [4]) is on record as 6.4.

As for `CC(C)C[C@H](NC(=O)[C@@H](Cc1c[nH]c2ccccc12)NC(=O)[C@H](Cc1ccccc1)NC(=O)[C@H](N)Cc1c[nH]c2ccccc12)C(=O)N[C@@H](Cc1ccccc1)C(N)=O` [Example 8, H--trp--Phe--trp--Leu--Phe--NH2] (H-[dW]F[dW]LF-NH2), the “Substance P Antagonist pA2” value in experiment [1] was determined as 6.28.

Consider `CC(C)C[C@H](NC(=O)[C@@H](Cc1c[nH]c2ccccc12)NC(=O)[C@H](Cc1ccccc1)NC(=O)[C@H]1Cc2c([nH]c3ccccc23)CN1)C(=O)N[C@@H](Cc1ccccc1)C(N)=O` [Example 9, H--tpi--Phe--trp--Leu--Phe--NH2] (H-[dTpi]F[dW]LF-NH2), for which the “Substance P Antagonist pA2” value in experiment [1] turned out to be 6.65.

With `NCC(CC(=O)O)c1ccc(Cl)cc1` (stereo not drawn) [baclofen, reference compound], the “effect on 3H-SP binding” value in experiment [2] was “do not affect”.

On to `COc1cc(CNC(=O)CCCC/C=C/C(C)C)ccc1O` [capsaicin, reference compound], for which, in experiment [2], the “effect on 3H-SP binding” value is “do not affect”.

With “H--Tpi--Bpa--trp--Leu--Phe--NH2 H--Tpi--bpa--trp--Leu--Phe--NH2 (mixture of isomers) [Example 7, H--Tpi--Bpa--trp--Leu--Phe--NH2 H--Tpi--bpa--trp--Leu--Phe--NH2 (mixture of isomers)]”, the “Substance P Antagonist pA2” value in experiment [1] (setting [4]) was 6.25.

Take “Z--Tca--Met--Asp--Phe--NH2 [Tca-tetragastrin]”: the “gastric juice stimulating activity” value in the experiment on gastric juice secretion is reported as “having gastric juice stimulating activity”.
